# Measured values: patent US20020028258A1, “Immunostimulant compositions and associated methods” (Pharmanex, LLC, priority 2000, published 2002)
# How the values were obtained:
# Format in all cases: cell-based, human
# Conditions in all cases: 50 ng/ml
# [1] = tested on: CD56+ cells; experiment: Immune Cell Stimulation Assay Method (CD69 expression, flow cytometry), CD56+
# Method: (§1) Each immunostimulation assay uses a Becton Dickinson FACScan flow cytometer to quantify immune cell activity. The specific protocol for measuring such activity utilizes freshly drawn human blood collected in sodium heparin to 200 μL. Echinacea extract is added in a desired concentration after being mixed with 50 μL of phosphate buffer. The blood and Echinacea mixture is vortexed and incubated at 37° C. for 5 hours to allow adequate time for immune cell stimulation.
# (§2) Positive controls consist of PMA (50 ng/ml), PHA ([…]), or CD2/CD2R (5 μL/250 μL) and negative controls consist of DMSO (2% in RPMI), RPMI, and cyclosporin A (10 μg/ml). For staining, 20 μL of reagent cocktail (CD4FITC/CD69PE/CD3PerCP (expressed on the helper/inducer T-lymphocyte subset and is the primary receptor for HIV); CD8FITC/CD69PE/CD3PerCP (expressed on the human suppressor/cytotoxic T-lymphocytes and on a subset of natural killer lymphocytes); CD19FITC/CD69PE/CD45PerCP (expressed on B-lymphocytes); CD56FITC/CD69PE/CD45PerCP (expressed on NK lymphocytes), for examples) are used.
# (§3) Following the cell stimulation period described above, solutions of fractions and constituents are compared quantitatively with the above-recited controls. […] The prepared samples are analyzed in the flow cytometer. […] Individual cell types are quantitated using appropriate stains and gating as known by those skilled in the art.
# [2] = tested on: CD4+ immune cells; experiment: Immune Cell Stimulation Assay Method (CD69 expression, flow cytometry), CD4+
# Method: as §1, §2
# Following the cell stimulation period described above, solutions of fractions and constituents are compared quantitatively with the above-recited controls. Next 50 μL of the stimulated blood samples are added to each of the tubes containing the reagent cocktail, vortexed and incubated at room temperature for 30 min. in the dark. Then 450 μL of 1× FACS lysing solution is added to each tube which is vortexed gently and incubated in the dark at room temp. for 20 min. The prepared samples are analyzed in the flow cytometer. CD69 (CD stands for cluster determinant) is the first […] expressed by any of these cells following stimulation and is produced on the surface of T-, B- and NK-lymphocytes. […] Individual cell types are quantitated using appropriate stains and gating as known by those skilled in the art.
# [3] = tested on: CD8+ immune cells; experiment: Immune Cell Stimulation Assay Method (CD69 expression, flow cytometry), CD8+
# Method: as §1, §2, §3
# [4] = tested on: CD19+ cells; experiment: Immune Cell Stimulation Assay Method (CD69 expression, flow cytometry), CD19+
# Method: as §1, §2, §3
structure (smiles),measurement,setting,value
CCCCCCCCCCCCCC(=O)O[C@@H]1[C@@H](C)[C@@]2(O)[C@@H](C=C(CO)C[C@]3(O)C(=O)C(C)=C[C@@H]23)[C@@H]2C(C)(C)[C@]12OC(C)=O [PMA],"CD56+ stimulation, positive control",[1]; Table 7,94.14%
same,"CD56+ stimulation, positive control",[1]; Table 8,94.940%
same,"CD4+ stimulation, positive control",[2]; Table 2,99.16%
same,"CD4+ stimulation, positive control",[2]; Table 3,99.16%
same,"CD4+ stimulation, positive control",[2]; Table 4,99.20%
same,"CD4+ stimulation, positive control",[2]; Table 7,99.42%
same,"CD4+ stimulation, positive control",[2]; Table 8,98.770%
same,"CD8+ stimulation, positive control",[3]; Table 7,99.04%
same,"CD8+ stimulation, positive control",[3]; Table 8,98.320%
same,"CD19+ stimulation, positive control",[4]; Table 7,97.68%
same,"CD19+ stimulation, positive control",[4]; Table 8,98.820%
